# Source: publication PMC7913621 (Molecules, 2021)
# Experiments:
# [1] = molecular target: T1, recombinant human PDE5A/PDE5 protein (Homo sapiens, UniProt O76074); experiment: colorimetric PDE Activity Assay Kit (Abcam), PDE5 inhibition; type: biochemical; details: for IC50: 200 μM cGMP, 40 ng enzyme, 20 min at 37 °C, 4% DMSO, read-out: IC50 against human PDE5; for Ki: read-out: Ki against human PDE5
# T1 construct: purchased Abcam
# Procedure: A high concentration of cGMP substrate was used (200 μM) due to the moderate sensitivity of the aforementioned assay.
# The inhibitory effect of the tested compounds was measured using colorimetric PDE Activity Assay Kit (Abcam, Cambridge, UK). This assay allows the quantification of 5′-nucleotide released in the reaction catalyzed by tested phosphodiesterase, PDE5, using the additional enzyme 5′-nucleotidase to cleave the mentioned product, and next, using modified Malachite Green assay, the phosphate is quantified. The assay was carried in a 96-well plate at a volume of 40 μL in an assay buffer, containing 40 ng recombinant human PDE5A/PDE5 protein (Abcam), 200 μM cGMP, 25 kU 5′-nucleotidase and serially diluted ligand to preserve 4% of DMSO. The reaction was initiated with the enzyme and kept going for 20 min at 37 °C. The reaction was stopped by adding 80 μL of Green Assay reagent. After incubation at room temperature for 30 min (to develop color proportional to phosphate content), the absorbance at 620 nm was measured with The SpectraMax iD3 Multi-Mode Microplate Reader (Molecular Devices, San Jose, CA, USA). Inhibitors concentrations varied in the range of 2 pM–200 μM. Each experiment was repeated 4–5 times and IC50 values were calculated by global fitting of the sigmoidal dose response equation implemented in Origin 9.0 package (www.originlab.com). For each experiment, control reaction with no enzyme added and without inhibitor was also performed.
# [2] = test system: glioblastoma U-87 MG; experiment: MTT cell viability assay, U-87 MG; type: cell-based, human; details: Homo sapiens, 72 h, median (95% Confidence Intervals)
# Procedure: (§1) The following human cell lines were used in this study: (i) epidermoid carcinoma A-431 (ATCC® CRL-1555), (ii) lung carcinoma A549 (ATCC® CCL-185), (iii) colorectal carcinoma HCT116 (ATCC® CCL-247), (iv) HCT116p53^−/−, (v) glioblastoma U-87 MG (ATCC® HTB-14), (vi) glioblastoma U-251 MG (ECACC 09063001), (vii) breast adenocarcinoma MCF7 (ATCC® HTB-22), (viii) breast adenocarcinoma MDA-MB-231 (ECACC 92020424), (ix) papillomavirus-related cervical squamous cell carcinoma SKG-IIIa (RRID:CVCL_1704), (x) cervical adenocarcinoma HeLa (ATCC® CCL-2), (xi) bone osteosarcoma U-2 OS (ATCC® HTB-96), (xii) hepatocellular carcinoma HEPG2 (ATCC® HB-8065), (xiii) larynx squamous cell carcinoma BICR 18 (ECACC 06051601), (ix) kidney HEK 293T (ATCC® CRL-11268), (xv) normal lung fibroblasts MRC-5 (ATCC® CCL-171), (xvi) normal fibroblasts BJ (ATCC® CRL-2522). The HCT116p53^−/− cell line was a kind gift from professor Bert Vogelstein (John Hopkin’s University, Baltimore, MD, USA). The remaining cell lines were purchased from ATCC (Manassas, VA, USA) or Sigma-Aldrich by Merck (Darmstadt, Germany).
# (§2) Cells were cultured in minimal or Dulbecco’s modified Eagle’s or Ham’s F10 medium supplemented with 10% fetal bovine serum (Gibco by Thermo Fisher Scientific, Waltham, MA, USA) and (for BICR 18) 0.4 μg/mL hydrocortizone (Sigma-Aldrich by Merck, Darmstadt, Germany) under standard culture conditions (37 °C, 5% CO2) in a humidified incubator with an atmospheric oxygen.
# (§3) The viability of cells was assayed by measuring the conversion of MTT (3-(4,5-dimethylthiazol-2-yl)-2,5-diphenyltetrazolium bromide) to the formazan (the rate of this reaction is proportional to the number of surviving cells). Cells were seeded in a 96-well plate at a density of 2500–3500 cells per well, 24 h before treatment. […] MTT stock solution (Sigma-Aldrich) was added at the final concentration 0.5 mg/mL. After 4 h of incubation at 37 °C, water-insoluble formazan was dissolved in a lysis buffer containing 20% SDS, 50% DMF, 2.5% hydrochloric acid and 2.5% acetic acid. Optical densities were measured at 570 nm using a scanning multi-well spectrophotometer ([…] Detection Platform; Beckman Coulter, Brea, CA, USA). At least three independent experiments of viability were conducted.
# [3] = test system: breast adenocarcinoma MCF7; experiment: MTT cell viability assay, MCF7; type: cell-based, human; details: Homo sapiens, 72 h, median (95% Confidence Intervals)
# Procedure: as §1, §2, §3
# [4] = test system: cervical squamous cell carcinoma SKG-IIIa; experiment: MTT cell viability assay, SKG-IIIa; type: cell-based, human; details: Homo sapiens, SKGIIIa, 72 h, median (95% Confidence Intervals)
# Procedure: as §1, §2, §3
# [5] = test system: cervical adenocarcinoma HeLa; experiment: MTT cell viability assay, HeLa; type: cell-based, human; details: Homo sapiens, 72 h, median (95% Confidence Intervals)
# Procedure: as §1, §2, §3
# [6] = test system: breast adenocarcinoma MDA-MB-231; experiment: MTT cell viability assay, MDA-MB-231; type: cell-based, human; details: Homo sapiens; MDA-MB-231, MTT, 72 h; median (95% Confidence Intervals)
# Procedure: as §1, §2, §3
# [7] = test system: larynx squamous cell carcinoma BICR 18; experiment: MTT cell viability assay, BICR 18; type: cell-based, human; details: Homo sapiens; BICR 18, MTT, 72 h; median (95% Confidence Intervals)
# Procedure: as §1, §2, §3
# [8] = test system: lung carcinoma A549; experiment: MTT cell viability assay, A549; type: cell-based, human; details: Homo sapiens, 72 h, median (95% Confidence Intervals)
# Procedure: as §1, §2, §3
# [9] = test system: colorectal carcinoma HCT116; experiment: MTT cell viability assay, HCT116; type: cell-based, human; details: Homo sapiens, HCT-116, 72 h, median (95% Confidence Intervals)
# Procedure: as §1, §2, §3
# [10] = test system: bone osteosarcoma U-2 OS; experiment: MTT cell viability assay, U-2 OS; type: cell-based, human; details: Homo sapiens, U2OS, 72 h, median (95% Confidence Intervals)
# Procedure: as §1, §2, §3
# [11] = test system: kidney HEK 293T; experiment: MTT cell viability assay, HEK 293T; type: cell-based, human; details: Homo sapiens, 72 h, median (95% Confidence Intervals)
# Procedure: as §1, §2, §3
# [12] = test system: normal lung fibroblasts MRC-5; experiment: MTT cell viability assay, MRC-5; type: cell-based, human; details: Homo sapiens, MRC5; MRC-5, MTT, 72 h; median (95% Confidence Intervals)
# Procedure: as §1, §2, §3
# [13] = test system: epidermoid carcinoma A-431; experiment: MTT cell viability assay, A-431; type: cell-based, human; details: Homo sapiens; A-431, MTT, 72 h; median (95% Confidence Intervals)
# Procedure: as §1, §2, §3
# [14] = test system: colorectal carcinoma HCT116p53^−/−; experiment: MTT cell viability assay, HCT116p53−/−; type: cell-based, human; details: Homo sapiens, 72 h, median (95% Confidence Intervals)
# Procedure: as §1, §2, §3
# [15] = test system: hepatocellular carcinoma HEPG2; experiment: MTT cell viability assay, HEPG2; type: cell-based, human; details: Homo sapiens, 72 h, median (95% Confidence Intervals)
# Procedure: as §1, §2, §3
# [16] = test system: normal fibroblasts BJ; experiment: MTT cell viability assay, BJ; type: cell-based, human; details: Homo sapiens, Fibroblast, 72 h, median (95% Confidence Intervals)
# Procedure: as §1, §2, §3
Structure (SMILES),IC50 [1] [µM],Ki [1] [µM],IC50 [2] [µM],IC50 [3] [µM],IC50 [4] [µM],IC50 [5] [µM],IC50 [6] [µM],IC50 [7] [µM],IC50 [8] [µM],IC50 [9] [µM],IC50 [10] [µM],IC50 [11] [µM],IC50 [12] [µM],IC50 [13] [µM],IC50 [14] [µM],IC50 [15] [µM],IC50 [16] [µM],"times less effective than tadalafil as PDE5 inhibitor ([1]; compared with tadalafil, human PDE5)"
"CN1CC(=O)N(Cc2cc3c(cc2Br)OCO3)[C@@H](Cc2c[nH]c3ccccc23)C1=O [Compound 7b, (S)-3-((1H-indol-3-yl)methyl)-4-((6-bromobenzo[d][1,3]dioxol-5-yl)methyl)-1-methylpiperazine-2,5-dione]",39 ± 27,0.39 ± 0.36,99,36.3,57.3,78.4,144,142,131,58.7,88.8,13.1,96.6,46.6,64.4,124,103,
"CN1CC(=O)N(Cc2cc3c(cc2Br)OCO3)[C@H](Cc2c[nH]c3ccccc23)C1=O [Compound 7a, (R)-3-((1H-indol-3-yl)methyl)-4-((6-bromobenzo[d][1,3]dioxol-5-yl)methyl)-1-methylpiperazine-2,5-dione]",22 ± 12,0.22 ± 0.17,110,28.9,75.9,79.2,,137,128,53,95.4,12.3,116,63.6,35.9,103,117,over 300
"CN1CC(=O)N(Cc2ccc3c(c2)OCO3)[C@H](Cc2c[nH]c3ccccc23)C1=O [Compound 6a, (R)-3-((1H-indol-3-yl)methyl)-4-(benzo[d][1,3]dioxol-5-ylmethyl)-1-methylpiperazine-2,5-dione]",137 ± 47,1.4 ± 0.8,153,53.2,146,120,,,,102,93.5,10.5,,104,83.2,,,
